Data reported in the NIST ThermoML archive (doi:10.1021/je100803e).
Numbers after ± are expanded uncertainties.

How the values were obtained:
[1] = for mass density / viscosity: 298.15 K, 101.3 kPa; for mass density / viscosity / vapor or sublimation pressure: Liquid; for viscosity: Capillary tube (Ostwald / Ubbelohde) method; for vapor or sublimation pressure: Ebulliometric method (Recirculating still); for Normal melting temperature: Crystal
[2] = refractive index (Na D-line) (dimensionless); conditions: 298.15 K; 101.33 kPa; Liquid; Standard Abbe refractometry
[3] = xn = mol fraction of the nth substance listed; conditions: 298.15 K, 101 kPa, Liquid; for viscosity: Capillary tube (Ostwald / Ubbelohde) method
[4] = refractive index (Na D-line) (dimensionless); xn = mol fraction of the nth substance listed; conditions: 298.15 K, 101 kPa, Liquid, Standard Abbe refractometry

CC(O)CO (centres undefined) [1,2-propanediol]
Conditions	mass density [kg/m3]	refractive index	viscosity [mPa·s]
[1]	1031.6 ± 0.1	–	44.45 ± 0.9
[2]	–	1.4313 ± 0.0004	–

[1]
Conditions	vapor or sublimation pressure [kPa]
378 K	4 ± 0.2
398.24 K	10 ± 0.2
402.54 K	12 ± 0.2
415.13 K	20 ± 0.2
425.72 K	30 ± 0.2
433.59 K	40 ± 0.2
439.9 K	50 ± 0.2
445.2 K	60 ± 0.2
449.79 K	70 ± 0.2
453.84 K	80 ± 0.2
457.48 K	90 ± 0.2
460.79 K	100 ± 0.2

CC(O)CO (centres undefined) [1,2-propanediol] + CC1COC(=O)O1
x1 = 1
Conditions	mass density [kg/m3]	refractive index	viscosity [mPa·s]
[3]	1031.6 ± 0.1	–	44.45 ± 0.9
[4]	–	1.4313 ± 0.0004	–

CC1COC(=O)O1 (centres undefined) [4-methyl-1,3-dioxolan-2-one]
Conditions	mass density [kg/m3]	refractive index	viscosity [mPa·s]
[1]	1199.4 ± 0.2	–	2.39 ± 0.021
[2]	–	1.4198 ± 0.0004	–

[1]
Conditions	vapor or sublimation pressure [kPa]
407.97 K	4 ± 0.7
432.45 K	10 ± 0.7
437.77 K	12 ± 0.7
453.6 K	20 ± 0.7
467.23 K	30 ± 0.7
477.53 K	40 ± 0.7
485.91 K	50 ± 0.7

CC1COC(=O)O1 (centres undefined) [4-methyl-1,3-dioxolan-2-one] + CC(O)CO
Conditions	mass density, [3] [kg/m3]	refractive index, [4]	viscosity, [3] [mPa·s]
x2 = 0	1199.4 ± 0.2	1.4198 ± 0.0004	2.39 ± 0.021
x2 = 0.01	–	–	2.534 ± 0.022
x2 = 0.05	1190.9 ± 0.2	1.4199 ± 0.0004	2.436 ± 0.021
x2 = 0.1	1182.4 ± 0.2	1.4199 ± 0.0004	–
x2 = 0.2	1166.4 ± 0.2	1.4207 ± 0.0004	2.921 ± 0.026
x2 = 0.3	1150.2 ± 0.2	1.4213 ± 0.0004	3.55 ± 0.032
x2 = 0.4	1134.2 ± 0.2	1.4223 ± 0.0004	4.758 ± 0.045
x2 = 0.5	1117.9 ± 0.2	1.4235 ± 0.0004	6.071 ± 0.06
x2 = 0.6	1101.6 ± 0.2	1.4249 ± 0.0004	8.461 ± 0.09
x2 = 0.7	1085.1 ± 0.2	1.4264 ± 0.0004	11.82 ± 0.14
x2 = 0.8	1068 ± 0.1	1.4278 ± 0.0004	17.38 ± 0.23
x2 = 0.9	1050.6 ± 0.1	1.4294 ± 0.0004	27.54 ± 0.45
x2 = 0.9499	1041.4 ± 0.1	1.4305 ± 0.0004	35.66 ± 0.65

CCOC(=O)CCC(=O)OCC [diethyl butanedioate]
Conditions	Normal melting temperature [°C]	mass density [kg/m3]	refractive index	viscosity [mPa·s]
[1]	-21.52 ± 0.62	1035.5 ± 0.1	–	2.393 ± 0.021
[2]	–	–	1.4179 ± 0.0004	–

[1]
Conditions	vapor or sublimation pressure [kPa]
392.46 K	4 ± 1.6
417.39 K	10 ± 1.6
423.15 K	12 ± 1.6
437.53 K	20 ± 1.6
453.15 K	30 ± 1.6
462.1 K	40 ± 1.6
467.78 K	50 ± 1.6

CCOC(=O)CCC(=O)OCC [diethyl butanedioate] + O=C1CCCO1
Conditions	mass density, [3] [kg/m3]	refractive index, [4]	viscosity, [3] [mPa·s]
x2 = 0	1035.5 ± 0.1	1.4179 ± 0.0004	2.393 ± 0.021
x2 = 0.05	1037.5 ± 0.1	1.4185 ± 0.0004	2.381 ± 0.021
x2 = 0.1	1040 ± 0.1	1.419 ± 0.0004	2.375 ± 0.02
x2 = 0.2	1045.3 ± 0.1	1.4201 ± 0.0004	2.356 ± 0.02
x2 = 0.2999	1051.1 ± 0.1	1.4213 ± 0.0004	2.318 ± 0.02
x2 = 0.4	1057.8 ± 0.1	1.4227 ± 0.0004	2.284 ± 0.02
x2 = 0.5	1065.3 ± 0.1	1.4242 ± 0.0004	2.226 ± 0.019
x2 = 0.6	1073.8 ± 0.1	1.4259 ± 0.0004	2.153 ± 0.018
x2 = 0.7	1083.5 ± 0.2	1.4278 ± 0.0004	2.073 ± 0.018
x2 = 0.8	1094.9 ± 0.2	1.4299 ± 0.0004	1.952 ± 0.017
x2 = 0.9	1108.4 ± 0.2	1.4323 ± 0.0004	1.817 ± 0.015
x2 = 0.95	1116.2 ± 0.2	1.4336 ± 0.0004	1.745 ± 0.015

O [water]
Conditions	Normal melting temperature [°C]
[1]	-0.10 ± 0.62

O [water] + O=C1CCCO1
x1 = 1
Conditions	refractive index	viscosity [mPa·s]
[3]	–	0.8756 ± 0.0075
[4]	1.3325 ± 0.0004	–

O=C1CCCO1 [γ-butyrolactone]
Conditions	Normal melting temperature [°C]	mass density [kg/m3]	refractive index	viscosity [mPa·s]
[1]	-43.72 ± 0.62	1124.5 ± 0.2	–	1.654 ± 0.014
[2]	–	–	1.435 ± 0.0004	–

[1]
Conditions	vapor or sublimation pressure [kPa]
376.99 K	4 ± 0.2
400.58 K	10 ± 0.2
405.68 K	12 ± 0.2
420.76 K	20 ± 0.2
433.66 K	30 ± 0.2
443.36 K	40 ± 0.2
451.22 K	50 ± 0.2
457.88 K	60 ± 0.2
463.68 K	70 ± 0.2
468.84 K	80 ± 0.2
473.49 K	90 ± 0.2
477.54 K	100 ± 0.2

O=C1CCCO1 [γ-butyrolactone] + CCOC(=O)CCC(=O)OCC
x1 = 1
Conditions	mass density [kg/m3]	refractive index	viscosity [mPa·s]
[3]	1124.5 ± 0.2	–	1.654 ± 0.014
[4]	–	1.435 ± 0.0004	–

O=C1CCCO1 [γ-butyrolactone] + O
Conditions	mass density, [3] [kg/m3]	refractive index, [4]	viscosity, [3] [mPa·s]
x2 = 0	1124.5 ± 0.2	1.435 ± 0.0004	1.654 ± 0.014
x2 = 0.05	1123 ± 0.2	1.4337 ± 0.0004	1.621 ± 0.014
x2 = 0.1002	1121.5 ± 0.2	1.4325 ± 0.0004	1.6 ± 0.013
x2 = 0.2	1118.2 ± 0.2	1.4295 ± 0.0004	1.606 ± 0.013
x2 = 0.3	1115.1 ± 0.2	1.4265 ± 0.0004	1.645 ± 0.014
x2 = 0.4	1110.9 ± 0.2	1.4226 ± 0.0004	1.706 ± 0.014
x2 = 0.5	1105.9 ± 0.2	1.4175 ± 0.0004	1.766 ± 0.015
x2 = 0.6	1098.8 ± 0.2	1.4116 ± 0.0004	1.8 ± 0.015
x2 = 0.7	1088.6 ± 0.2	1.4017 ± 0.0004	1.787 ± 0.015
x2 = 0.8	1073.2 ± 0.1	1.3888 ± 0.0004	1.668 ± 0.014
x2 = 0.9	1047.1 ± 0.1	1.3684 ± 0.0004	1.385 ± 0.012
x2 = 0.95	1026.6 ± 0.2	1.3531 ± 0.0004	1.16 ± 0.0098
